What all share (assay type): biochemical
In one assay the target is T1, Human GSK3b (Homo sapiens, UniProt P49841).
T1 construct: 6-His (N); made in house; host or cells: E. coli
In words: GSK3b kinase scintillation proximity assay. To be noted: 2.5 uM ATP, 11-point dose-response 0.0001 to 10 μM; read-out: GSK3. The protocol: Human GSK3b was expressed in E. coli with a 6-His tag at the N-terminus. The protein was purified using metal-chelate affinity chromatography. The incorporation of radioactive phosphate into a biotinylated synthetic peptide, Biotin-Ahx-[…](PO3)YR-amide was detected using a scintillation proximity assay (SPA) method as described above. Assay conditions were as follows: 100 mM HEPES, pH 7.2, 10 mM MgCl2, 0.3 mg/mL heparin sulfate, 0.1 mg/mL BSA, 1 mM DTT, 2.5 uM ATP, 0.6 uCi/rxn ^33P-ATP, 1.2 ug/mL GSK-3b protein. The plates are incubated at room temperature for 19 minutes prior to the addition of SPA stop solution.
(§1) Data Calculations—Peptide substrate phosphorylation reactions were performed as described above. The example compound indicated was serially diluted 1 to 3 and added to the reactions to produce an 11-point dose-response curve ranging from 0.0001 to 10 μM.
Background: SPA uses beads or plates that emit light when radiolabelled molecules are held near them.

The next assay concerns the target T2, ErbB-2 (Homo sapiens, UniProt P04626).
T2 construct: made in house; host or cells: baculovirus expression system (insect cells)
In words: ErbB-2 protein tyrosine kinase substrate phosphorylation assay (SPA). To be noted: 10 μM ATP, 11-point dose-response 0.0001 to 10 μM; read-out: ErbB2. The protocol:
(§2) Compounds of the present invention were tested for EGFR or ErbB-2 protein tyrosine kinase inhibitory activity in substrate phosphorylation assays using enzymes purified from a baculovirus expression system.
(§3) The method measures the ability of the isolated enzyme to catalyse the transfer of the γ-phosphate from ATP onto tyrosine residues in a biotinylated synthetic peptide (biotin-Ahx-[…]-amide). Reactions were performed in 96 or 384 well polystyrene plates in a final volume of 20 or 45 μl. […] ATP per reaction, 2 μM peptide substrate, and 1 mM dithiothreitol. Reactions were initiated by adding 1 pmol (20 nM) per reaction of the indicated enzyme.
as §1

The target of the next assay is T3, EGFR (Homo sapiens, UniProt P00533).
T3 construct: made in house; host or cells: baculovirus expression system (insect cells)
In words: EGFR protein tyrosine kinase substrate phosphorylation assay (SPA). The following applies: 10 μM ATP, 11-point dose-response 0.0001 to 10 μM. The protocol: as §2, §3, §1

Assay [1] addresses T4, vascular endothelial growth factor receptor 2 (VEGFR2) (Homo sapiens, UniProt P35968).
T4 construct: The catalytic domains of vascular endothelial growth factor receptor 2 (VEGFR2) was expressed and purified; made in house
In words: VEGFR2 kinase assay (homogeneous time-resolved fluorescence). To be noted: 75 μM ATP, 11-point dose-response 0.0001 to 10 μM; read-out: VEGF-R. On the procedure: The catalytic domains of vascular endothelial growth factor receptor 2 (VEGFR2) was expressed and purified using methods similar to those described for ErbB-2 and EGFR. Kinase assays were performed as described above with the following modifications: VEGFR2 assays contained 10 nM enzyme, 100 mM HEPES, pH 7.5, 0.1 mg/ml bovine serum albumin, 0.1 mM dithiothreitol, 360 nM peptide A, 75 μM ATP, and 5 mM MgCl2. The reaction was allowed to proceed for 40 min. Product was detected using a homogeneous time-resolved fluorescence procedure (Park, Y.-W., Cummings, R. T., Wu, L., Zheng, S., Cameron, P. M., Woods, A., Zaller, D. M., Marcy, A. I., and Hermes, J. D. (1999) Anal. Biochem. 269, 94-104). Briefly, the reactions were quenched by adding 100 μl of 100 mM HEPES, pH 7.5, 100 mM EDTA, 45 nM streptavidin-linked allophycocyanin (Molecular Probes, Eugene, Oreg.), and 3 nM europium-conjugated anti-phosphotyrosine antibody (Wallac, Turku, Finland). The product was detected using a Victor plate reader (Wallac, Turku, Finland) with a time delay at 665 nm.
as §1

Molecules are shown by their SMILES.

T4 sequence (P35968 834-1162 limits assumed): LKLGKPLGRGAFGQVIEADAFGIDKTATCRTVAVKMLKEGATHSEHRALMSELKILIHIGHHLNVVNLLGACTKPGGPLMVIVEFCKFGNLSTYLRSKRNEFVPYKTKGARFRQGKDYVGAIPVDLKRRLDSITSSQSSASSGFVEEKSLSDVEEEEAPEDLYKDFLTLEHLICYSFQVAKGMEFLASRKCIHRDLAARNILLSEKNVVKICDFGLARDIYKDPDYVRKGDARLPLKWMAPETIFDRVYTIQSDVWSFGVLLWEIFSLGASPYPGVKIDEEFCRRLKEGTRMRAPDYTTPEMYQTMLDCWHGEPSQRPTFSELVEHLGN
T3 sequence (P00533 669-1210 limits assumed): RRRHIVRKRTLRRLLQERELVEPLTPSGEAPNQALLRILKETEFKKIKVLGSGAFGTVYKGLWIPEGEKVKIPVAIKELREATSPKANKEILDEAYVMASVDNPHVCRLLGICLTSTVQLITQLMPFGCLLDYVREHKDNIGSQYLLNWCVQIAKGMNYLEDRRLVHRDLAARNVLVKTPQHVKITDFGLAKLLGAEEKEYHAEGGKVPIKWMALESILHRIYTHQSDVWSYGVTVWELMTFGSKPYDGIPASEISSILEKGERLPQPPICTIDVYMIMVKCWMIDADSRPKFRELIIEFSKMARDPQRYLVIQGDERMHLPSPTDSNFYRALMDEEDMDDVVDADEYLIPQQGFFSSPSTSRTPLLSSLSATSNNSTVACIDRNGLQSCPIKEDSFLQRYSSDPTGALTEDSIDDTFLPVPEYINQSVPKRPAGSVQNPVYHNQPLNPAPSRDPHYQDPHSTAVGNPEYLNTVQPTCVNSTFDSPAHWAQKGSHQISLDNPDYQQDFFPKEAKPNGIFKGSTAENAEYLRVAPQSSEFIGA
T1 sequence (P49841 whole entry): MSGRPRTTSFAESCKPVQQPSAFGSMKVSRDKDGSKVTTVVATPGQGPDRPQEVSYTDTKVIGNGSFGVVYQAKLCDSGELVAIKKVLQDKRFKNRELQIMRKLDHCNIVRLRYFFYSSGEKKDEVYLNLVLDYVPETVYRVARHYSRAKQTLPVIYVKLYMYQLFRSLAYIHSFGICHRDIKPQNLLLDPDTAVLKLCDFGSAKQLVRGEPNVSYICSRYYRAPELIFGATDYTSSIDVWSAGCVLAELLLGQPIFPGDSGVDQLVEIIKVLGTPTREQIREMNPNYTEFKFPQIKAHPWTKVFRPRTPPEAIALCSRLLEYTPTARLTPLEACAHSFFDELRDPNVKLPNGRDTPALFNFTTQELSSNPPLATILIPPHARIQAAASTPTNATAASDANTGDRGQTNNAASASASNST
T2 sequence (P04626 676-1255 limits assumed): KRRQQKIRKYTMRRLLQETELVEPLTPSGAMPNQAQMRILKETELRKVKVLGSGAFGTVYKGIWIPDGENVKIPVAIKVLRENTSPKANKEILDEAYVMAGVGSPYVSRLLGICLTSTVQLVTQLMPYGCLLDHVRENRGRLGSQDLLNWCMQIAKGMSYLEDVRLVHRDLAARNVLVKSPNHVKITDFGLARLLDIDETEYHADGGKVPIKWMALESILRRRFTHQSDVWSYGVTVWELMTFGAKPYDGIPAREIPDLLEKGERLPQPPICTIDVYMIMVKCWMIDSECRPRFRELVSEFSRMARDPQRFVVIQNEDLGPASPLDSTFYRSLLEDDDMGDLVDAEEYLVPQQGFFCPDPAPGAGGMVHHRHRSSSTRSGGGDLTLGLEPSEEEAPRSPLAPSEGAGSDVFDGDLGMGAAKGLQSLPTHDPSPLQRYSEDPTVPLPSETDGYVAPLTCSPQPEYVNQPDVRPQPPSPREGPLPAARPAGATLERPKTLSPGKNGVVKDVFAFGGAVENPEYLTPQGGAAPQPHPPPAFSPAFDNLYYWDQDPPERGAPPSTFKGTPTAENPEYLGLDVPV

`C(=NNc1ncnc2nn3ccccc3c12)c1c[nH]c2ccccc12` [Example 14, 1H-indole-3-carbaldehyde pyrido[1′,2′:1,5]pyrazolo[3,4-d]pyrimidin-4-ylhydrazone]: the IC50 was 1 to 10 µM on Human GSK3b, over 10 µM on ErbB-2, 1 to 10 µM on EGFR and over 10 µM in assay [1].

Consider `Fc1ccc(Nc2ncnc3nn4ccccc4c23)cc1Cl` [Example 4, N-(3-chloro-4-fluorophenyl)pyrido[1′,2′:1,5]pyrazolo[3,4-d]pyrimidin-4-amine], for which the IC50 (on Human GSK3b; in assay [1]) was over 10 µM throughout.

For `Nc1ncnc2nn3ccccc3c12` [Example 1, pyrido[1′,2′:1,5]pyrazolo[3,4-d]pyrimidin-4-amine], the IC50 (at Human GSK3b; at ErbB-2; against EGFR; in assay [1]) was over 10 µM each time.

For `Clc1cc(Nc2ncnc3nn4ccccc4c23)ccc1OCc1ccccc1` [Example 6, N-{3-chloro-4-[(phenylmethyl)oxy]phenyl}pyrido[1′,2′:1,5]pyrazolo[3,4-d]pyrimidin-4-amine], the IC50 at Human GSK3b is over 10 µM; at ErbB-2, 0.1 to 1 µM; against EGFR, under 0.1 µM; in assay [1], over 10 µM.

As for `O=C(Nc1ccc(F)cc1)Nc1ncnc2nn3ccccc3c12` [Example 13, N-(4-fluorophenyl)-N′-pyrido[1′,2′:1,5]pyrazolo[3,4-d]pyrimidin-4-ylurea], the IC50 at Human GSK3b was over 10 µM; on ErbB-2, over 10 µM; against EGFR it was over 10 µM; in assay [1], 0.1 to 1 µM.

Turning to `O=C(Nc1ccc(Br)cc1)Nc1ncnc2nn3ccccc3c12` [Example 11, N-(4-bromophenyl)-N′-pyrido[1′,2′:1,5]pyrazolo[3,4-d]pyrimidin-4-ylurea], the IC50 at Human GSK3b was 1 to 10 µM; at ErbB-2, over 10 µM; at EGFR it was over 10 µM; in assay [1], 1 to 10 µM.

As to `O=C(Nc1cccc([N+](=O)[O-])c1)Nc1ncnc2nn3ccccc3c12` [Example 10, N-(3-nitrophenyl)-N′-pyrido[1′,2′:1,5]pyrazolo[3,4-d]pyrimidin-4-ylurea], the IC50 at Human GSK3b was 0.1 to 1 µM; on ErbB-2, over 10 µM; against EGFR it was over 10 µM; in assay [1], over 10 µM.

In the case of `O=C(Nc1cccc(C(F)(F)F)c1)Nc1ncnc2nn3ccccc3c12` [Example 9, N-pyrido[1′,2′:1,5]pyrazolo[3,4-d]pyrimidin-4-yl-N′-[3-(trifluoromethyl)phenyl]urea], the IC50 on Human GSK3b is 0.1 to 1 µM; at ErbB-2, over 10 µM; against EGFR, over 10 µM; in assay [1], 0.1 to 1 µM.

Take `O=C(Nc1ccc(C(F)(F)F)cc1)Nc1ncnc2nn3ccccc3c12` [Example 12, N-pyrido[1′,2′:1,5]pyrazolo[3,4-d]pyrimidin-4-yl-N′-[4-(trifluoromethyl)phenyl]urea]: the IC50 on Human GSK3b was 1 to 10 µM; at ErbB-2, over 10 µM; on EGFR, over 10 µM; in assay [1], 1 to 10 µM.

For the compound `c1ccc(Cc2nc3ccc(Nc4ncnc5nn6ccccc6c45)cc3[nH]2)cc1` [Example 7, N-[2-(phenylmethyl)-1H-benzimidazol-5-yl]pyrido[1′,2′:1,5]pyrazolo-[3,4-d]pyrimidin-4-amine], the IC50 is over 10 µM on Human GSK3b, 1 to 10 µM at ErbB-2, 1 to 10 µM on EGFR and over 10 µM in assay [1].

On to `N#Cc1cccc(NC(=O)Nc2ncnc3nn4ccccc4c23)c1` [Example 8, N-(3-cyanophenyl)-N′-pyrido[1′,2′:1,5]pyrazolo[3,4-d]pyrimidin-4-ylurea], for which the IC50 on Human GSK3b is 0.1 to 1 µM; on ErbB-2, over 10 µM; at EGFR, over 10 µM; in assay [1] it was 0.1 to 1 µM.

Turning to `Fc1cccc(COc2ccc(Nc3ncnc4nn5ccccc5c34)cc2Cl)c1` [Example 5, N-(3-chloro-4-{[(3-fluorophenyl)methyl]oxy}phenyl)-pyrido[1′,2′:1,5]pyrazolo[3,4-d]pyrimidin-4-amine], the IC50 (at Human GSK3b; in assay [1]) was over 10 µM in each case.
